The results in this text go back to patent US12516179B2, “Chitosan-based nanocomposite as an antimicrobial agent and corrosion inhibitor” (priority 2019, dated 2026).

The test system of data set [1] is SRB induced corrosion on carbon steel (SS400). The data set can be described thus: EIS of carbon steel (SS400) coupons incubated in SRB media with CLNC / CS@LS. The following applies: SRB with 5% GA. As to the method:
The carbon steel coupons were incubated in liquid medium containing enriched SRB biomass (250 mg·VSS/L) along with modified Postage's C medium in simulated inject seawater. […] 200 ml plastic bottles were used for the incubation experiments. The coupons were incubated without CLNC to evaluate the SRB induced corrosion on carbon steel. In next stage, the optimum conditions of the nanocomposite have been verified by using different ratio nanocomposites as well as optimum concentration has been tested by using different concentrations of optimum ratio CLNC. Then the optimum concentration of CLNC were added in the incubating mixture to evaluate the corrosion inhibition imparted by the nanocomposite at different time intervals. The abiotic conditions were made by incubating coupons in same manner without any SRB and nanocomposite to differentiate the SRB induced corrosion from chemical corrosion. All incubation experiments were performed in anaerobic chamber to maintain the anaerobic condition throughout the experiments. […]
EIS analysis was carried out using Gamry potentiostat (Gamry 600+, FA, USA) using the SRB treated carbon steel coupon as a working electrode, calomel and graphite disk electrodes as reference and counter electrodes, respectively. […] The EIS measurements were recorded at an open circuit potential with a 10 mV sinusoidal signal over the frequency range of 0.01-10^5 Hz Before the EIS measurements, steady state conditions were achieved by keeping the whole setup at open circuit potential (OCP) for 30 min. Potentiodynamic polarization curves were measured by scanning the potential from −250 mV to +250 mV vs OCP at a sweep rate of 0.167 mV/s. The experimental results were analyzed by Gamry Echem Analyst software version 7.05.
The mixed SRB culture was enriched from sludge biomass obtained from an offshore oil filed in Qatar. […] The optimum concentration of CS@LS was evaluated in the range of 0-1000 μg·mL^−1 CS@LS and EIS analysis was performed after 10 days of incubation. […]

In data set [2] the test system is zebrafish embryos. The data set can be described thus: Zebrafish embryo acute toxicity assay (CZNCs). Type of data set: in vivo, zebrafish (Danio rerio), AB strain. As for the experimental part:
Fertilized embryos of wild type AB zebrafish strains (Danio rerio) were collected in E3 egg medium in Petri dishes. At 3 hours post-fertilization (hpf), unfertilized and abnormal embryos were discarded. The fertilized embryos were dechorionated with pronase at 24-hpf and retained in 6 well-plates containing E3 egg medium. Next, E3 egg medium was replaced by the different concentrations of drugs to be tested.
We investigated the toxicology of CZNCs nanomaterial with an acute toxicity assay adapted by the Organization of Economic Co-operation and Development (OECD) guideline for testing chemical toxicity (No 203 and 236) and modified it for nanoparticle testing. The purified (acetic acid-free) lyophilized CZNCs nanomaterial was weighted and dissolved in DI water, then sonicated in a water bath for 15 min for several cycles until a complete homogeneous solution is achieved. Next, 24-hpf healthy dechorionated embryos were transferred to 6 well-plate containing the following treatment dissolved in E3 egg medium: (i) four different concentrations (25, 50, 100, 250 μg/mL) of CZNCs (ii) the positive control DEAB ([…]), (iii) the negative control 0.1% DMSO and then incubated at 28.5° C. for an additional 72 h until their age reached 96-hpf. Cumulative survival and mortality were recorded at 3-time point intervals (48, 72, and 96 hpf), In addition, all embryos were observed every day for any teratogenic abnormalities. […] A total of 100 embryos were used for each tested dose condition of the CZNCs, and 20 embryos for DEAB and DMSO concentrations. The toxicity assessment was expressed as a percentage of survived embryos for 96-hpf. Teratogenic score was presented as average standard error of mean. This value was calculated at every stage as the sum of different teratogenic phenotypes, expressed in percentage respect to the total number of possible teratogenic phenotypes at that precise stage of observation.

The subject of data set [3] is zebrafish embryos. The experiment in a line: Zebrafish embryo acute toxicity assay (CNLS-NCs). Type of data set: in vivo, zebrafish (AB strain). The conditions noted are these: exposure 24-72 hpf. As for the experimental part:
We used wild type zebrafish embryos (AB strain) in our study. For detailed information about our zebrafish aquatic system (Aquaneering, USA), original source of the zebrafish, zebrafish culture, mating protocol, and animal protocol guidelines, the reader is advised to visit the following articles. For the acute toxicity assay, at 24-hours post fertilization (hpf), embryos were dechorionated as described in. Briefly, E3 media were removed and 0.5 mg/mL of pronase enzyme (Sigma, Germany) in 10 mL PTU-E3 media was added and incubated for 10 min at 28° C. until the chorion become soft. Then, embryos were washed 2-3 times with PTU-E3 medium until the embryos were released and free from the chorion. […] The mortality rate and teratogenicity (morphological deformities) were observed and recorded at 2-time point intervals (48 and 72-hpf) using a standard stereo microscope (Zeiss, Germany). The teratogenic effects of both nanoparticles were determined based on the normal embryo morphology of the negative control (FIG. 9A), and abnormal morphology [defects in body size, heart and yolk edema, scoliosis, pigmentation, and movement problem (FIG. 9B)] of the positive control. Teratogenicity was scored at 72-hpf by calculating the number of dead and deformed embryos over the total number of […] embryos used in each concentration (50 embryos). […]

On to `O=CCCCC=O` [GA, glutaraldehyde], for which the bacterial growth result in data set [1] was “complete bacterial growth can be inhibited”. For the same compound, in data set [1] (15 days), the Rct was 158.8 Ω·cm^2 and the Rf was 136.4 Ω·cm^2.
Take `CCN(CC)c1ccc(C=O)cc1` [DEAB, Diethylaminobenzaldehyde]: the LOEC with zebrafish embryos [2] (96-hpf, =>20% mortality) turned out to be 1.0 µM. For the same compound, the cumulative mortality in the data set with zebrafish embryos [2] (DEAB 1.0 μM, 96-hpf) was 60%; in the data set with zebrafish embryos [2] (DEAB at NOEC (0.1), 96-hpf), 10%. The LC50 (usually the concentration that kills 50% of the test population) is 0.94 µM in the data set with zebrafish embryos [2] (sigmoidal curve, 95% confidence limit) and 2.5 µM in the data set on zebrafish embryos [3].
